Reference: US10556888B2, “Pyrazole compounds or salts thereof, preparation methods therefor, herbicidal compositions and use thereof” (QINGDAO KINGAGROOT CHEMICAL COMPOUNDS CO., LTD, priority 2015, dated 2020)

Legend:
[1] = test system: Monocotyledonous and dicotyledonous weed; test: Post-emergence test experiment, weed control effect (Table 2); assay type: in vivo; design: key to weed control effect, Setaria viridis (level) / weed control effect, Rorippa indica (level) / weed control effect, Abutilon theophrasti (level) / weed control effect, Echinochloa crus-galli (level) / weed control effect, Digitaria sanguinalis (level): Level 10: completely dead; Level 9: above 90% growth inhibition rate; Level 8: above 80% growth inhibition rate; Level 7: above 70% growth inhibition rate; Level 6: above 60% growth inhibition rate; Level 5: above 50% growth inhibition rate; Level 4: above 30% growth inhibition rate; Level 3: above 20% growth inhibition rate; Level 2: above 10% growth inhibition rate; Level 1: above 1-10% growth inhibition rate; Level 0: no effect; conditions: 3 weeks after spraying, greenhouse
Summary of the method: (§1)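 Compounds, dissolved in acetone, mixed with Tween 80 and diluted in water, were sprayed post-emergence onto greenhouse-grown weeds and crops at the 2-3 leaf stage (2-3 weeks post-sowing). Plants then grown 3 more weeks in the greenhouse before evaluation.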

[2] = test system: main crop (wheat, corn, rice, soybean, cotton, oilseed, millet and sorghum); test: Post-emergence test experiment, main crops (Table 2); assay type: in vivo; design: key: Level 10: completely dead; Level 9: above 90% growth inhibition rate; Level 8: above 80% growth inhibition rate; Level 7: above 70% growth inhibition rate; Level 6: above 60% growth inhibition rate; Level 5: above 50% growth inhibition rate; Level 4: above 30% growth inhibition rate; Level 3: above 20% growth inhibition rate; Level 2: above 10% growth inhibition rate; Level 1: above 1-10% growth inhibition rate; Level 0: no effect; conditions: 3 weeks after spraying, greenhouse
Summary of the method: as §1

| Structure (SMILES) | weed control effect, Abutilon theophrasti (level) ([1]; 30 g/ha) | weed control effect, Bidens pilosa (level) ([1]; 30 g/ha) | weed control effect, Digitaria sanguinalis (level) ([1]; 30 g/ha) | weed control effect, Echinochloa crus-galli (level) ([1]; 30 g/ha) | weed control effect, Rorippa indica (level) ([1]; 30 g/ha) | weed control effect, Setaria viridis (level) ([1]; 30 g/ha) | effect on crop, corn (level) ([2]; 30 g/ha) | effect on crop, rice (level) ([2]; 30 g/ha) | effect on crop, wheat (level) ([2]; 30 g/ha) | weed control effect, Abutilon theophrasti (level) ([1]; 120 g/ha) | weed control effect, Bidens pilosa (level) ([1]; 120 g/ha) | weed control effect, Digitaria sanguinalis (level) ([1]; 120 g/ha) | weed control effect, Echinochloa crus-galli (level) ([1]; 120 g/ha) | weed control effect, Rorippa indica (level) ([1]; 120 g/ha) | weed control effect, Setaria viridis (level) ([1]; 120 g/ha) | effect on crop, corn (level) ([2]; 120 g/ha) | effect on crop, rice (level) ([2]; 120 g/ha) | effect on crop, wheat (level) ([2]; 120 g/ha) |
| --- | --- | --- | --- | --- | --- | --- | --- | --- | --- | --- | --- | --- | --- | --- | --- | --- | --- | --- |
| CCCCOCc1c(S(C)(=O)=O)ccc(C(=O)c2c(C3CC3)nn(C)c2OC(=O)c2cnn(C)c2)c1Cl [Compound 75] | 5 (Level 5: above 50% growth inhibition rate) | 6 (Level 6: above 60% growth inhibition rate) | 9 (Level 9: above 90% growth inhibition rate) | 10 | 10 | 7 (Level 7: above 70% growth inhibition rate) | 0 | 3 (Level 3: above 20% growth inhibition rate) | 0 |  |  |  |  |  |  |  |  |  |
| Cc1nn(C)cc1C(=O)Oc1c(C(=O)c2ccc(S(C)(=O)=O)c(Cn3cccn3)c2C)cnn1C [Compound 77] | 7 (Level 7: above 70% growth inhibition rate) | 7 (Level 7: above 70% growth inhibition rate) | 7 (Level 7: above 70% growth inhibition rate) | 10 | 10 | 10 | 1 (Level 1: above 1-10% growth inhibition rate) | 3 (Level 3: above 20% growth inhibition rate) | 0 |  |  |  |  |  |  |  |  |  |
| Cc1c(C(=O)c2c(C3CC3)nn(C)c2OC(=O)c2cnn(C)c2)ccc(S(C)(=O)=O)c1COCC(F)(F)F [Compound 78] | 7 (Level 7: above 70% growth inhibition rate) | 7 (Level 7: above 70% growth inhibition rate) | 7 (Level 7: above 70% growth inhibition rate) | 10 | 10 | 10 | 1 (Level 1: above 1-10% growth inhibition rate) | 3 (Level 3: above 20% growth inhibition rate) | 0 |  |  |  |  |  |  |  |  |  |
| Cc1cc(C)n(Cc2c(S(C)(=O)=O)ccc(C(=O)c3c(C)nn(C)c3OC(=O)c3cnn(C)c3)c2C)n1 [Compound 79] |  |  |  |  |  |  |  |  |  | 6 (Level 6: above 60% growth inhibition rate) | 6 (Level 6: above 60% growth inhibition rate) | 1 (Level 1: above 1-10% growth inhibition rate) | 10 | 4 (Level 4: above 30% growth inhibition rate) | 3 (Level 3: above 20% growth inhibition rate) | 0 | 0 | 0 |
| CCOCc1c(S(C)(=O)=O)ccc(C(=O)c2cnn(C)c2OC(=O)c2cnn(C)c2OCC)c1C [Compound 80] | 6 (Level 6: above 60% growth inhibition rate) | 7 (Level 7: above 70% growth inhibition rate) | 7 (Level 7: above 70% growth inhibition rate) | 10 | 10 | 6 (Level 6: above 60% growth inhibition rate) | 0 | 3 (Level 3: above 20% growth inhibition rate) | 0 |  |  |  |  |  |  |  |  |  |
| CCOc1c(C(=O)Oc2c(C(=O)c3ccc(S(C)(=O)=O)c(Cn4cc(C)cn4)c3C)c(C3CC3)nn2C)cnn1C [Compound 81] |  |  |  |  |  |  |  |  |  | 6 (Level 6: above 60% growth inhibition rate) | 6 (Level 6: above 60% growth inhibition rate) | 1 (Level 1: above 1-10% growth inhibition rate) | 10 | 4 (Level 4: above 30% growth inhibition rate) | 3 (Level 3: above 20% growth inhibition rate) | 0 | 0 | 0 |
| CCOc1c(C(=O)Oc2c(C(=O)c3ccc(S(C)(=O)=O)c(Cn4cc(Cl)cn4)c3C)c(C)nn2CC)cnn1C [Compound 82] |  |  |  |  |  |  |  |  |  | 6 (Level 6: above 60% growth inhibition rate) | 6 (Level 6: above 60% growth inhibition rate) | 1 (Level 1: above 1-10% growth inhibition rate) | 10 | 4 (Level 4: above 30% growth inhibition rate) | 3 (Level 3: above 20% growth inhibition rate) | 0 | 0 | 0 |
| CCn1nc(C2CC2)c(C(=O)c2ccc(S(C)(=O)=O)c(Cn3cc(Cl)cn3)c2C)c1OC(=O)c1cn(C)nc1C [Compound 84] |  |  |  |  |  |  |  |  |  | 6 (Level 6: above 60% growth inhibition rate) | 6 (Level 6: above 60% growth inhibition rate) | 1 (Level 1: above 1-10% growth inhibition rate) | 10 | 4 (Level 4: above 30% growth inhibition rate) | 3 (Level 3: above 20% growth inhibition rate) | 0 | 0 | 0 |
| CCn1nc(C)c(C(=O)c2ccc(S(C)(=O)=O)c(COCC(F)(F)C(F)F)c2C)c1OC(=O)c1cnn(C)c1 [Compound 85] | 6 (Level 6: above 60% growth inhibition rate) | 7 (Level 7: above 70% growth inhibition rate) | 8 (Level 8: above 80% growth inhibition rate) | 9 (Level 9: above 90% growth inhibition rate) | 10 | 8 (Level 8: above 80% growth inhibition rate) | 0 | 3 (Level 3: above 20% growth inhibition rate) | 0 |  |  |  |  |  |  |  |  |  |
| CCOCCOCc1c(S(C)(=O)=O)ccc(C(=O)c2c(C3CC3)nn(CC)c2OC(=O)c2cnn(C)c2OCC)c1C [Compound 86] | 6 (Level 6: above 60% growth inhibition rate) | 7 (Level 7: above 70% growth inhibition rate) | 8 (Level 8: above 80% growth inhibition rate) | 8 (Level 8: above 80% growth inhibition rate) | 10 | 8 (Level 8: above 80% growth inhibition rate) | 0 | 3 (Level 3: above 20% growth inhibition rate) | 0 |  |  |  |  |  |  |  |  |  |
| CCn1ncc(C(=O)c2ccc(S(C)(=O)=O)c(Cn3cc(C)cn3)c2C)c1OC(=O)c1cnn(C)c1 [Compound 87] |  |  |  |  |  |  |  |  |  | 6 (Level 6: above 60% growth inhibition rate) | 6 (Level 6: above 60% growth inhibition rate) | 1 (Level 1: above 1-10% growth inhibition rate) | 10 | 4 (Level 4: above 30% growth inhibition rate) | 3 (Level 3: above 20% growth inhibition rate) | 0 | 0 | 0 |
